Experimental data as given in patent US20140303164A1, “THERAPEUTIC COMPOUNDS” (Gilead Sciences, Inc., priority 2013, published 2014).

Assays:
[1] = system: HIV-IIIb; assay: Test A: Antiviral Assay in MT4 Cells; format: cell-based, HIV-1; conditions: Human immunodeficiency virus 1, IIIB, MT4, 120 h; for inhibition at 0.2 µM: read-out: % inhibition at 0.2 μM; for inhibition at 2 µM: read-out: % inhibition at 2 μM
Method: Test A: Antiviral Assay in MT4 Cells
MT-4 cells were next mixed with HIV-IIIb at an m.o.i of 0.003 for 1 hour, after which time 35 μL of virus/cell mixture (2000 cells) was immediately added to each well containing 40 μL of diluted compound. The plates were then incubated at 37° C. for 5 days. […] Cell lysis was carried out by incubating at room temperature for 10 min and then chemiluminescence was read.

[2] = Test B: Cytotoxicity Assay; format: cell-based; conditions: human, uninfected MT-4 cells, same protocol as Test A
Outline: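 Uninfected MT-4 cells (2000 per well) incubated with diluted compound at 37° C. for 5 days, following the antiviral protocol without HIV-IIIb.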

Structure (SMILES)	inhibition at 0.2 µM [1] [%]	inhibition at 2 µM [1] [%]	CC50 at 5 days [2] [µM]
CC(C)(O)C#Cc1ccc(-c2ccc(Cl)c3c(NS(C)(=O)=O)n[nH]c23)c([C@H](Cc2cc(F)cc(F)c2)NC(=O)Cn2nc(C(F)(F)F)c3c2C(F)(F)[C@@H]2C[C@H]32)n1 [Compound 109, N—((S)-1-(3-(4-chloro-3-(methylsulfonamido)-1H-indazol-7-yl)-6-(3-hydroxy-3-methylbut-1-yn-1-yl)pyridin-2-yl)-2-(3,5-difluorophenyl)ethyl)-2-((3b-S,4aR)-5,5-difluoro-3-(trifluoromethyl)-3b,4,4a,5-tetrahydro-1H-cyclopropa[3,4]cyclopenta[1,2-c]pyrazol-1-yl)acetamide]	97	97	29.6
CC(C)(O)C#Cc1ccc(-c2ccc(Cl)n3c(NS(C)(=O)=O)nnc23)c([C@H](Cc2cc(F)cc(F)c2)NC(=O)Cn2nc(C(F)F)c3c2C(F)(F)[C@@H]2C[C@H]32)n1 [Compound 110E, N—((S)-1-(3-(5-chloro-3-(methylsulfonamido)-[1,2,4]triazolo[4,3-a]pyridin-8-yl)-6-(3-hydroxy-3-methylbut-1-yn-1-yl)pyridin-2-yl)-2-(3,5-difluorophenyl)ethyl)-2-((3b-S,4aR)-3-(difluoromethyl)-5,5-difluoro-3b,4,4a,5-tetrahydro-1H-cyclopropa[3,4]cyclopenta[1,2-c]pyrazol-1-yl)acetamide]	15	98	> 53.2
CC(C)(O)C#Cc1ccc(-c2ccc(Cl)n3c(N)nnc23)c([C@H](Cc2cc(F)cc(F)c2)NC(=O)Cn2nc(C(F)(F)F)c3c2C(F)(F)[C@@H]2C[C@H]32)n1 [Compound 111, N—((S)-1-(3-(3-amino-5-chloro-[1,2,4]triazolo[4,3-a]pyridin-8-yl)-6-(3-hydroxy-3-methylbut-1-yn-1-yl)pyridin-2-yl)-2-(3,5-difluorophenyl)ethyl)-2-((3b-S,4aR)-5,5-difluoro-3-(trifluoromethyl)-3b,4,4a,5-tetrahydro-1H-cyclopropa[3,4]cyclopenta[1,2-c]pyrazol-1-yl)acetamide]	89	90	9.59
COc1ccc(-c2ccc(C#CC(C)(C)O)nc2[C@H](Cc2cc(F)cc(F)c2)NC(=O)Cn2nc(C(F)F)c3c2C(F)(F)[C@@H]2C[C@H]32)c2c1c(N)nn2C [Compound 114G, N—((S)-1-(3-(3-amino-4-methoxy-1-methyl-1H-indazol-7-yl)-6-(3-hydroxy-3-methylbut-1-yn-1-yl)pyridin-2-yl)-2-(3,5-difluorophenyl)ethyl)-2-((3b-S,4aR)-3-(difluoromethyl)-5,5-difluoro-3b,4,4a,5-tetrahydro-1H-cyclopropa[3,4]cyclopenta[1,2-c]pyrazol-1-yl)acetamide]	100	100	14.8
CC(C)(C)C#Cc1ccc(-c2ccc(Cl)n3c(N)nnc23)c([C@H](Cc2cc(F)cc(F)c2)NC(=O)Cn2nc(C(F)F)c3c2C(F)(F)[C@@H]2C[C@H]32)n1 [Compound 115C, N—((S)-1-(3-(3-amino-5-chloro-[1,2,4]triazolo[4,3-a]pyridin-8-yl)-6-(3,3-dimethylbut-1-yn-1-yl)pyridin-2-yl)-2-(3,5-difluorophenyl)ethyl)-2-((3b-S,4aR)-3-(difluoromethyl)-5,5-difluoro-3b,4,4a,5-tetrahydro-1H-cyclopropa[3,4]cyclopenta[1,2-c]pyrazol-1-yl)acetamide]	84	91	9.31
Cc1ccc(-c2ccc(C#CC(C)(C)C)nc2[C@H](Cc2cc(F)cc(F)c2)NC(=O)Cn2nc(C(F)F)c3c2C(F)(F)[C@@H]2C[C@H]32)c2nnc(N)n12 [Compound 116A, N—((S)-1-(3-(3-amino-5-methyl-[1,2,4]triazolo[4,3-a]pyridin-8-yl)-6-(3,3-dimethylbut-1-yn-1-yl)pyridin-2-yl)-2-(3,5-difluorophenyl)ethyl)-2-((3b-S,4aR)-3-(difluoromethyl)-5,5-difluoro-3b,4,4a,5-tetrahydro-1H-cyclopropa[3,4]cyclopenta[1,2-c]pyrazol-1-yl)acetamide]	62	93	10.5
CC(C)(O)C#Cc1ccc(-c2cccn3c(NCC(F)(F)F)nnc23)c([C@H](Cc2cc(F)cc(F)c2)NC(=O)Cn2nc(C(F)F)c3c2C(F)(F)[C@@H]2C[C@H]32)n1 [Compound 117F, 2-((3b-S,4aR)-3-(difluoromethyl)-5,5-difluoro-3b,4,4a,5-tetrahydro-1H-cyclopropa[3,4]cyclopenta[1,2-c]pyrazol-1-yl)-N—((S)-2-(3,5-difluorophenyl)-1-(6-(3-hydroxy-3-methylbut-1-yn-1-yl)-3-(3-((2,2,2-trifluoroethyl)amino)-[1,2,4]triazolo[4,3-a]pyridin-8-yl)pyridin-2-yl)ethyl)acetamide]	93	100	27.8
CC(C)(C)C#Cc1ccc(-c2ccc(Cl)n3c(NS(C)(=O)=O)nnc23)c([C@H](Cc2cc(F)cc(F)c2)NC(=O)Cn2nc(C(F)F)c3c2C(F)(F)[C@@H]2C[C@H]32)n1 [Compound 118, N—((S)-1-(3-(5-chloro-3-(methylsulfonamido)-[1,2,4]triazolo[4,3-a]pyridin-8-yl)-6-(3,3-dimethylbut-1-yn-1-yl)pyridin-2-yl)-2-(3,5-difluorophenyl)ethyl)-2-((3b-S,4aR)-3-(difluoromethyl)-5,5-difluoro-3b,4,4a,5-tetrahydro-1H-cyclopropa[3,4]cyclopenta[1,2-c]pyrazol-1-yl)acetamide]	96	96	23.9
Cn1nc(NS(N)(=O)=O)c2c(Cl)ccc(-c3ccc(C#CC(C)(C)O)nc3[C@H](Cc3cc(F)cc(F)c3)NC(=O)Cn3nc(C(F)(F)F)c4c3C(F)(F)[C@@H]3C[C@H]43)c21 [Compound 119C, N—((S)-1-(3-(4-chloro-1-methyl-3-(sulfamoylamino)-1H-indazol-7-yl)-6-(3-hydroxy-3-methylbut-1-yn-1-yl)pyridin-2-yl)-2-(3,5-difluorophenyl)ethyl)-2-((3b-S,4aR)-5,5-difluoro-3-(trifluoromethyl)-3b,4,4a,5-tetrahydro-1H-cyclopropa[3,4]cyclopenta[1,2-c]pyrazol-1-yl)acetamide]	99	99	9.24
Cc1nc(NS(C)(=O)=O)c2cccc(-c3ccc(C#CC(C)(C)O)nc3[C@H](Cc3cc(F)cc(F)c3)NC(=O)Cn3nc(C(F)F)c4c3C(F)(F)[C@@H]3C[C@H]43)n12 [Compound 120H, 2-((3b-S,4aR)-3-(difluoromethyl)-5,5-difluoro-3b,4,4a,5-tetrahydro-1H-cyclopropa[3,4]cyclopenta[1,2-c]pyrazol-1-yl)-N—((S)-2-(3,5-difluorophenyl)-1-(6-(3-hydroxy-3-methylbut-1-yn-1-yl)-3-(3-methyl-1-(methylsulfonamido)imidazo[1,5-a]pyridin-5-yl)pyridin-2-yl)ethyl)acetamide]	51	88	11.7
Cc1nc(NS(C)(=O)=O)c2cccc(-c3ccc(C#CC(C)(C)O)nc3[C@H](Cc3cc(F)cc(F)c3)NC(=O)Cn3nc(C(F)(F)F)c4c3C(F)(F)[C@@H]3C[C@H]43)n12 [Compound 121, 2-((3bS,4aR)-5,5-difluoro-3-(trifluoromethyl)-3b,4,4a,5-tetrahydro-1H-cyclopropa[3,4]cyclopenta[1,2-c]pyrazol-1-yl)-N—((S)-2-(3,5-difluorophenyl)-1-(6-(3-hydroxy-3-methylbut-1-yn-1-yl)-3-(3-methyl-1-(methylsulfonamido)imidazo[1,5-a]pyridin-5-yl)pyridin-2-yl)ethyl)acetamide]	46	98	9.18
Cn1nc(NS(N)(=O)=O)c2c(Cl)ccc(-c3ccc(C#CC(C)(C)O)nc3[C@H](Cc3cc(F)cc(F)c3)NC(=O)Cn3nc(C(F)F)c4c3C(F)(F)CCC4(F)F)c21 [Compound 122, (S)—N-(1-(3-(4 chloro-1-methyl-3-(sulfamoylamino)-1H-indazol-7-yl)-6-(3-hydroxy-3-methylbut-1-yn-1-yl)pyridin-2-yl)-2-(3,5-difluorophenyl)ethyl)-2-(3-(difluoromethyl)-4,4,7,7-tetrafluoro-4,5,6,7-tetrahydro-1H-indazol-1-yl)acetamide]	88	88	9.07
CNS(=O)(=O)Nc1nn(C)c2c(-c3ccc(C#CC(C)(C)O)nc3[C@H](Cc3cc(F)cc(F)c3)NC(=O)Cn3nc(C(F)F)c4c3C(F)(F)[C@@H]3C[C@H]43)ccc(Cl)c12 [Compound 123, N—((S)-1-(3-(4-chloro-1-methyl-3-((N-methylsulfamoyl)amino)-1H-indazol-7-yl)-6-(3-hydroxy-3-methylbut-1-yn-1-yl)pyridin-2-yl)-2-(3,5-difluorophenyl)ethyl)-2-((3b-S,4aR)-3-(difluoromethyl)-5,5-difluoro-3b,4,4a,5-tetrahydro-1H-cyclopropa[3,4]cyclopenta[1,2-c]pyrazol-1-yl)acetamide]	90	90	7.9
Cn1nc(NS(C)(=O)=O)c2c(Cl)ccc(-c3ccc(C#CC(C)(C)O)nc3[C@H](Cc3cc(F)cc(F)c3)NC(=O)Cn3nc(C(F)(F)F)c4c3CCCC4)c21 [Compound 124, (S)—N-(1-(3-(4 chloro-1-methyl-3-(methylsulfonamido)-1H-indazol-7-yl)-6-(3-hydroxy-3-methylbut-1-yn-1-yl)pyridin-2-yl)-2-(3,5-difluorophenyl)ethyl)-2-(3-(trifluoromethyl)-4,5,6,7-tetrahydro-1H-indazol-1-yl)acetamide]	97	97	9.14
